From patent publication US12569509B2, “Method and composition for preventing and treating viral infections” (priority 2017, dated 2026)
“And” between values parts separate entries of the source, which are not always exact repeats. Identical values can stand only once.

Tests used:
[1] = tested on: human PBMC; assay: LPS concentration optimization, cytokine release in human PBMC (Phase 1); assay type: cell-based; conditions: for IL-2 Mean Concentration in supernatant / IFN-g Mean Concentration in supernatant: Donors 1-3; for IL-2 Mean Concentration in supernatant: LLOQ = 2.387 pg/mL; for IFN-g Mean Concentration in supernatant: LLOQ = 2.872 pg/mL; for IL-1β Mean Concentration in supernatant / IL-6 Mean Concentration in supernatant / TNF-α Mean Concentration in supernatant: individual Donors 1-3
[2] = tested on: human PBMC; assay: LPS stimulated cytokine secretion in human PBMC pretreated with compounds (Phase 2); assay type: cell-based; conditions: LPS alone, 1 ng/mL, 8-hour stimulation; for IL-2 concentration in supernatant: LLOQ = 1.698 pg/mL; for TNF-α concentration in supernatant: LLOQ = 2.018 pg/mL; for IL-1β concentration in supernatant: LLOQ = 2.299 pg/mL; for IFN-g concentration in supernatant: LLOQ = 2.792 pg/mL; for IL-6 concentration in supernatant: LLOQ = 0.831
Text: Results are represented as fold-change relative to LPS treatment alone for each cytokine calculated by means from 3 separate donors.
RPMI medium alone, RPMI supplemented with 0.2% DMSO (to mimic treatment conditions) or LPS stimulation alone were used as controls.
Except for the two negative control conditions, all 3 donors responded to all experimental conditions tested with the secretion of TNF-α, IL-1β, and IL-6 albeit with a high degree of variability.

With Lipopolysaccharide [LPS] the “Secretion of IL-1b, IL-6 and TNF-α” value ([1]; 1 ng/mL LPS, after 8 hours) was “robust secretion”, the “Secretion of IL-2 or IFN-g” value ([1]; 1 ng/mL LPS, after 8 hours) was “No secretion” and the “IL-2 Mean Concentration in supernatant” value ([1]; LPS 1 ng/mL, 8-hour) was “<LLOQ”. For the same substance, the “IFN-g Mean Concentration in supernatant” value ([1]; LPS 1 ng/mL, 8-hour) was “<LLOQ”, the “IL-1β Mean Concentration in supernatant” value ([1]; LPS 1 ng/mL, 8-hour) was 403.43 pg/mL and 575.75 pg/mL and 1756.56 pg/mL (2×) and the “IL-6 Mean Concentration in supernatant” value ([1]; LPS 1 ng/mL, 8-hour) was 64.83 pg/mL and 659.3 pg/mL and 1103.64 pg/mL (2×). For the same substance, the “TNF-α Mean Concentration in supernatant” value ([1]; LPS 1 ng/mL, 8-hour) was 670.9 pg/mL and 817.83 pg/mL and 1149.23 pg/mL (2×), the “IL-2 Mean Concentration in supernatant” value ([1]; LPS 1 ng/mL, 24-hour) was “<LLOQ” and the “IFN-g Mean Concentration in supernatant” value ([1]; LPS 1 ng/mL, 24-hour) was “<LLOQ”. For the same substance, the “IL-1β Mean Concentration in supernatant” value ([1]; LPS 1 ng/mL, 24-hour) was 923.42 pg/mL and 1164.43 pg/mL and 2396.79 pg/mL, the “IL-6 Mean Concentration in supernatant” value ([1]; LPS 1 ng/mL, 24-hour) was 1284.85 pg/mL and 1269.72 pg/mL and 1897.32 pg/mL and the “TNF-α Mean Concentration in supernatant” value ([1]; LPS 1 ng/mL, 24-hour) was 1768.29 pg/mL and 2299.94 pg/mL and 2108.58 pg/mL. For the same substance, the “IL-2 Mean Concentration in supernatant” value ([1]; LPS 10 ng/mL, 8-hour) was “<LLOQ”, the “IFN-g Mean Concentration in supernatant” value ([1]; LPS 10 ng/mL, 8-hour) was “<LLOQ” and the “IL-1β Mean Concentration in supernatant” value ([1]; LPS 10 ng/mL, 8-hour) was 404.91 pg/mL and 879.72 pg/mL and 1768.06 pg/mL. For the same substance, the “IL-6 Mean Concentration in supernatant” value ([1]; LPS 10 ng/mL, 8-hour) was 192.2 pg/mL and 830.13 pg/mL and 1084.03 pg/mL, the “TNF-α Mean Concentration in supernatant” value ([1]; LPS 10 ng/mL, 8-hour) was 912.13 pg/mL and 955.81 pg/mL and 1113.95 pg/mL and the “IL-2 Mean Concentration in supernatant” value ([1]; LPS 10 ng/mL, 24-hour) was “<LLOQ”. For the same substance, the “IFN-g Mean Concentration in supernatant” value ([1]; LPS 10 ng/mL, 24-hour) was “<LLOQ”, the “IL-1β Mean Concentration in supernatant” value ([1]; LPS 10 ng/mL, 24-hour) was 986.68 pg/mL and 1038.39 pg/mL and 2391.98 pg/mL and the “IL-6 Mean Concentration in supernatant” value ([1]; LPS 10 ng/mL, 24-hour) was 1393.01 pg/mL and 1167.49 pg/mL and 2016.76 pg/mL. For the same substance, the “TNF-α Mean Concentration in supernatant” value ([1]; LPS 10 ng/mL, 24-hour) was 2316.87 pg/mL and 1605.58 pg/mL and 2139.91 pg/mL, the “IL-2 Mean Concentration in supernatant” value ([1]; LPS 50 ng/mL, 8-hour) was “<LLOQ” and the “IFN-g Mean Concentration in supernatant” value ([1]; LPS 50 ng/mL, 8-hour) was “<LLOQ”. For the same substance, the “IL-1β Mean Concentration in supernatant” value ([1]; LPS 50 ng/mL, 8-hour) was 327.69 pg/mL and 1002.11 pg/mL and 1751.4 pg/mL, the “IL-6 Mean Concentration in supernatant” value ([1]; LPS 50 ng/mL, 8-hour) was 75.24 pg/mL and 880.71 pg/mL and 1096.09 pg/mL and the “TNF-α Mean Concentration in supernatant” value ([1]; LPS 50 ng/mL, 8-hour) was 511.42 pg/mL and 1143.84 pg/mL and 1051.41 pg/mL. For the same substance, the “IL-2 Mean Concentration in supernatant” value ([1]; LPS 50 ng/mL, 24-hour) was “<LLOQ”, the “IFN-g Mean Concentration in supernatant” value ([1]; LPS 50 ng/mL, 24-hour) was “<LLOQ” and the “IL-1β Mean Concentration in supernatant” value ([1]; LPS 50 ng/mL, 24-hour) was 899.92 pg/mL and 1170.32 pg/mL and 2216.54 pg/mL. For the same substance, the “IL-6 Mean Concentration in supernatant” value ([1]; LPS 50 ng/mL, 24-hour) was 1317.99 pg/mL and 1333.24 pg/mL and 1966.58 pg/mL, the “TNF-α Mean Concentration in supernatant” value ([1]; LPS 50 ng/mL, 24-hour) was 1680.24 pg/mL and 1378.24 pg/mL and 1954.44 pg/mL and the “IL-2 Mean Concentration in supernatant” value ([1]; LPS 100 ng/mL, 8-hour) was “<LLOQ”. The “IFN-g Mean Concentration in supernatant” value ([1]; LPS 100 ng/mL, 8-hour) was “<LLOQ”, the “IL-1β Mean Concentration in supernatant” value ([1]; LPS 100 ng/mL, 8-hour) was 298.82 pg/mL and 873.62 pg/mL and 1222.41 pg/mL and the “IL-6 Mean Concentration in supernatant” value ([1]; LPS 100 ng/mL, 8-hour) was 37.62 pg/mL and 820.5 pg/mL and 817.27 pg/mL. The “TNF-α Mean Concentration in supernatant” value ([1]; LPS 100 ng/mL, 8-hour) was 386.41 pg/mL and 1313.93 pg/mL and 868.83 pg/mL, the “IL-2 Mean Concentration in supernatant” value ([1]; LPS 100 ng/mL, 24-hour) was “<LLOQ” and the “IFN-g Mean Concentration in supernatant” value ([1]; LPS 100 ng/mL, 24-hour) was “<LLOQ”. For the same substance, the “IL-1β Mean Concentration in supernatant” value ([1]; LPS 100 ng/mL, 24-hour) was 913.95 pg/mL and 1182.07 pg/mL and 2282.4 pg/mL, the “IL-6 Mean Concentration in supernatant” value ([1]; LPS 100 ng/mL, 24-hour) was 1390.38 pg/mL and 1243.06 pg/mL and 2083.25 pg/mL and the “TNF-α Mean Concentration in supernatant” value ([1]; LPS 100 ng/mL, 24-hour) was 1792.89 pg/mL and 1332.65 pg/mL and 2343.08 pg/mL. The “IL-2 Mean Concentration in supernatant” value ([1]; LPS 1000 ng/mL, 8-hour) was “<LLOQ”, the “IFN-g Mean Concentration in supernatant” value ([1]; LPS 1000 ng/mL, 8-hour) was “<LLOQ” and the “IL-1β Mean Concentration in supernatant” value ([1]; LPS 1000 ng/mL, 8-hour) was 1008.83 pg/mL and 1979.93 pg/mL and 441.01 pg/mL. The “IL-6 Mean Concentration in supernatant” value ([1]; LPS 1000 ng/mL, 8-hour) was 895.76 pg/mL and 1251.62 pg/mL and 166.25 pg/mL, the “TNF-α Mean Concentration in supernatant” value ([1]; LPS 1000 ng/mL, 8-hour) was 1276.06 pg/mL and 1481.27 pg/mL and 498.68 pg/mL and the “IFN-g Mean Concentration in supernatant” value ([1]; LPS 1000 ng/mL, 24-hour) was “<LLOQ”. For the same substance, the “IL-1β Mean Concentration in supernatant” value ([1]; LPS 1000 ng/mL, 24-hour) was 1145.77 pg/mL and 2192.5 pg/mL and 799.96 pg/mL, the “IL-6 Mean Concentration in supernatant” value ([1]; LPS 1000 ng/mL, 24-hour) was 1519.68 pg/mL and 2426.8 pg/mL and 1363.37 pg/mL and the “TNF-α Mean Concentration in supernatant” value ([1]; LPS 1000 ng/mL, 24-hour) was 2286.74 pg/mL and 3069.72 pg/mL and 1675.83 pg/mL. For the same substance, the “Production of TNF-α, IL-1β, and IL-6” value ([1]; LPS ≥1 ng/mL, 8 and 24 hours, all donors) was “robust production”, the “IL-2 concentration in supernatant” value ([2]; Donor 1) was “<LLOQ” and the “TNF-α concentration in supernatant” value ([2]; Donor 1) was 1417.82 pg/mL. For the same substance, the “IL-1β concentration in supernatant” value ([2]; Donor 1) was 2362.87 pg/mL, the “IFN-g concentration in supernatant” value ([2]; Donor 1) was “<LLOQ” and the “IL-6 concentration in supernatant” value ([2]; Donor 1) was 863.49 pg/mL. The “IL-2 concentration in supernatant” value ([2]; Donor 2) was “<LLOQ”, the “TNF-α concentration in supernatant” value ([2]; Donor 2) was 1375.72 pg/mL and the “IL-1β concentration in supernatant” value ([2]; Donor 2) was 2485.92 pg/mL. The “IFN-g concentration in supernatant” value ([2]; Donor 2) was “<LLOQ”, the “IL-6 concentration in supernatant” value ([2]; Donor 2) was 760.26 pg/mL and the “IL-2 concentration in supernatant” value ([2]; Donor 3) was “<LLOQ”. For the same substance, the “TNF-α concentration in supernatant” value ([2]; Donor 3) was 4449.11 pg/mL, the “IL-1β concentration in supernatant” value ([2]; Donor 3) was 3881.34 pg/mL and the “IFN-g concentration in supernatant” value ([2]; Donor 3) was “<LLOQ”. For the same substance, the “IL-6 concentration in supernatant” value ([2]; Donor 3) was 760.26 pg/mL.
